According to patent US10266537B2, “3-acetylenyl-pyrazole-pyrimidine derivative, and preparation method therefor and uses thereof” (Si Chuan University, priority 2015, dated 2019):

What was measured:
MDA-MB-453 = test: cells; details: Homo sapiens, MDA-MB-453, 72 h, read-out: Proliferation inhibitory activity IC50
U87 = test: Cell proliferation inhibition assay (MTT); format: cell-based; details: Homo sapiens, U-87 MG, 72 hours, read-out: Proliferation inhibitory activity IC50
Procedure: (§1) The cells were seeded in 96-well plates with 200 μL of cell suspension per well and incubated overnight in a cell culture medium with a cell concentration of 1 2×10^4 cells/mL. The next day, the supernatant was discarded (the suspension cell was centrifuged before it) and the cells were treated with gradient concentrations of the test compound, respectively. […] After 72 hours, add 20 μL of MTT reagent at a concentration of 5 mg/mL per well. After incubation for 2-4 h, the supernatant was discarded and 150 μL of DMSO was added to each well. […] Relative cell proliferation inhibition rate=([MUT]-[MUT])×100%/[MUT]. The experiment was repeated at least 3 times. Experimental data were expressed as mean, data statistics using t test, P<0.05 for the difference was statistically significant.

Hela = test: Cell proliferation inhibition assay (MTT); format: cell-based; details: Homo sapiens, 72 hours, read-out: Proliferation inhibitory activity IC50
Procedure: as §1

BRK = BRK (Homo sapiens (Human), UniProt Q13882); test: Kinase inhibition assay (KinaseProfiler, 33P-ATP); format: biochemical; details: BRK(h), read-out: The percentage of the remaining active protein
Hck = Hck (Homo sapiens (Human), UniProt P08631); test: Kinase inhibition assay (KinaseProfiler, 33P-ATP); format: biochemical; details: Hck(h); 10 μM; read-out: The percentage of the remaining active protein
Lck = Lck (Homo sapiens (Human), UniProt P06239); test: Kinase inhibition assay (KinaseProfiler, 33P-ATP); format: biochemical
Chain of Lck (P06239 whole entry): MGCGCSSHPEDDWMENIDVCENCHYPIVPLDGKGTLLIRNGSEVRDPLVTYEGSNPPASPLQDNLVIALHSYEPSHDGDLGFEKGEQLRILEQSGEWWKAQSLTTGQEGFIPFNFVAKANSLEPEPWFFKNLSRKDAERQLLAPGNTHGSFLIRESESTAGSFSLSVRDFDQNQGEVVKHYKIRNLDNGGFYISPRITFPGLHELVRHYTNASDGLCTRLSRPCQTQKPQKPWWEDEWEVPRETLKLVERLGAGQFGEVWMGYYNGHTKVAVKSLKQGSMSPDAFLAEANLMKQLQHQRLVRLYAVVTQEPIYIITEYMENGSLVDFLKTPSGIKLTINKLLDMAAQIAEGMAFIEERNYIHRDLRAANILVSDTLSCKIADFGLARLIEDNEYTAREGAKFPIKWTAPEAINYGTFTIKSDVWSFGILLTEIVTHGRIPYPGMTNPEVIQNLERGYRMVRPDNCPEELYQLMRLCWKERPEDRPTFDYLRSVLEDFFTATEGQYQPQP

cKit(h) = cKit(h) (Homo sapiens (Human), UniProt P10721); test: Kinase inhibition assay (KinaseProfiler, 33P-ATP); format: biochemical; details: 10 μM, read-out: The percentage of the remaining active protein
Chain of cKit(h) (P10721 26-976): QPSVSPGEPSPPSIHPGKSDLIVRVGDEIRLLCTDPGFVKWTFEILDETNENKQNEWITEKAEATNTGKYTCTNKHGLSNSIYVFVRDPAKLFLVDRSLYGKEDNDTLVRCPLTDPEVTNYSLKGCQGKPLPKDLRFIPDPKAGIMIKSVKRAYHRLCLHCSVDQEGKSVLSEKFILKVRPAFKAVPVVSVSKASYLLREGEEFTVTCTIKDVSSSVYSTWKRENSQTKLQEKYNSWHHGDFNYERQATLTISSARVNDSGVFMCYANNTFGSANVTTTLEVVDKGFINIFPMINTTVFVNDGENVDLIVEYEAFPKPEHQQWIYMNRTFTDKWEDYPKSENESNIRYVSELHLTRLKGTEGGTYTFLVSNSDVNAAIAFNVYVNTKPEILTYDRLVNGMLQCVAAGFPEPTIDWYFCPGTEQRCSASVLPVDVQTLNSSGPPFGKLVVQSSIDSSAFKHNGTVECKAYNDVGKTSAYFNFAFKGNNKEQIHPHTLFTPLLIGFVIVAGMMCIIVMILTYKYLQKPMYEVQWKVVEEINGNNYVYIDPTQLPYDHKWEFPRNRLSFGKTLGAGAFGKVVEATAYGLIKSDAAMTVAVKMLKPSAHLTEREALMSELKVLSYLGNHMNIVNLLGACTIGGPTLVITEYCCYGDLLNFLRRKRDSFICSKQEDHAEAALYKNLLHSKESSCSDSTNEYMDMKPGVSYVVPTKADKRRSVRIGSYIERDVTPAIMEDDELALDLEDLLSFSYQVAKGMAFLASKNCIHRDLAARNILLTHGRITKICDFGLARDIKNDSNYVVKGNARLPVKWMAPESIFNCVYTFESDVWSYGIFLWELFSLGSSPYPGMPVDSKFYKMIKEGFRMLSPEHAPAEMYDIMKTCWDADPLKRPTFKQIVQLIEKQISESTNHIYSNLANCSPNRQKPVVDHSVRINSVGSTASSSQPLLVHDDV

EphA5 = EphA5 (Homo sapiens (Human), UniProt P54756); test: Kinase inhibition assay (KinaseProfiler, 33P-ATP); format: biochemical; details: EphA5(h), read-out: The percentage of the remaining active protein
EphA7 = EphA7 (Homo sapiens (Human), UniProt Q15375); test: Kinase inhibition assay (KinaseProfiler, 33P-ATP); format: biochemical; details: EphA7(h), read-out: The percentage of the remaining active protein
Rse = Rse (Homo sapiens (Human), UniProt Q06418); test: Kinase inhibition assay (KinaseProfiler, 33P-ATP); format: biochemical; details: Rse(h), read-out: The percentage of the remaining active protein
ZR-75-1 = test: Cell proliferation inhibition assay (MTT); format: cell-based; details: Homo sapiens, 72 hours, read-out: Proliferation inhibitory activity IC50
Procedure: as §1

MDA-MB-415 = test: Cell proliferation inhibition assay (MTT); format: cell-based; details: Homo sapiens, 72 hours, read-out: Proliferation inhibitory activity IC50
Procedure: as §1

Abl(Y253F)(h) = Abl(Y253F)(h) (Homo sapiens (Human), UniProt P00519, Y253F); test: Kinase inhibition assay (KinaseProfiler, 33P-ATP); format: biochemical; details: read-out: The percentage of the remaining active protein
CaMKIδ(h) = CaMKIδ(h) (Homo sapiens (Human), UniProt Q8IU85); test: Kinase inhibition assay (KinaseProfiler, 33P-ATP); format: biochemical; details: read-out: The percentage of the remaining active protein
CaMKK2(h) = CaMKK2(h) (Homo sapiens (Human), UniProt Q96RR4); test: Kinase inhibition assay (KinaseProfiler, 33P-ATP); format: biochemical; details: read-out: The percentage of the remaining active protein
CDK5/p25(h) = CDK5/p25(h) (Homo sapiens (Human), UniProt Q00535); test: Kinase inhibition assay (KinaseProfiler, 33P-ATP); format: biochemical; details: read-out: The percentage of the remaining active protein
CLK3(h) = CLK3(h) (Homo sapiens (Human), UniProt P49761); test: Kinase inhibition assay (KinaseProfiler, 33P-ATP); format: biochemical; details: read-out: The percentage of the remaining active protein
DAPK1(h) = DAPK1(h) (Homo sapiens (Human), UniProt P53355); test: Kinase inhibition assay (KinaseProfiler, 33P-ATP); format: biochemical; details: read-out: The percentage of the remaining active protein
DCAMKL2(h) = DCAMKL2(h) (Homo sapiens (Human), UniProt Q8N568); test: Kinase inhibition assay (KinaseProfiler, 33P-ATP); format: biochemical; details: read-out: The percentage of the remaining active protein
GRK6(h) = GRK6(h) (Homo sapiens (Human), UniProt P43250); test: Kinase inhibition assay (KinaseProfiler, 33P-ATP); format: biochemical; details: read-out: The percentage of the remaining active protein
Haspin(h) = Haspin(h) (Homo sapiens (Human), UniProt Q8TF76); test: Kinase inhibition assay (KinaseProfiler, 33P-ATP); format: biochemical; details: read-out: The percentage of the remaining active protein
Hck(h) activated = Hck(h) activated (Homo sapiens (Human), UniProt P08631); test: Kinase inhibition assay (KinaseProfiler, 33P-ATP); format: biochemical; details: read-out: The percentage of the remaining active protein
IKKε(h) = IKKε(h) (Homo sapiens (Human), UniProt Q14164); test: Kinase inhibition assay (KinaseProfiler, 33P-ATP); format: biochemical; details: read-out: The percentage of the remaining active protein
IR(h) = IR(h) (Homo sapiens (Human), UniProt P06213); test: Kinase inhibition assay (KinaseProfiler, 33P-ATP); format: biochemical; details: read-out: The percentage of the remaining active protein
IRAK4(h) = IRAK4(h) (Homo sapiens (Human), UniProt Q9NWZ3); test: Kinase inhibition assay (KinaseProfiler, 33P-ATP); format: biochemical; details: read-out: The percentage of the remaining active protein
Chain of IRAK4(h) (Q9NWZ3 whole entry): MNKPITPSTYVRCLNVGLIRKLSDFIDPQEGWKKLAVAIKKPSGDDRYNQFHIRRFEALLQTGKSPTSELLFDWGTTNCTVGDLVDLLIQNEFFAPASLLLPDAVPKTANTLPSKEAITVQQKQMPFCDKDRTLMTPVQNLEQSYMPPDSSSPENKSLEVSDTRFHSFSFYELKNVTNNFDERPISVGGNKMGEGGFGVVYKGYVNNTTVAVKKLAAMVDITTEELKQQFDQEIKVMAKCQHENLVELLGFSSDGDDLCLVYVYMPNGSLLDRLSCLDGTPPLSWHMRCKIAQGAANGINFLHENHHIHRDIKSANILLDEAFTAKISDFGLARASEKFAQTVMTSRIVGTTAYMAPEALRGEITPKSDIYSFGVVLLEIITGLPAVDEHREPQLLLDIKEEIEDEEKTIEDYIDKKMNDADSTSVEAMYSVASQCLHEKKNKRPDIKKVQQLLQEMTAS

MAPKAP-K3(h) = MAPKAP-K3(h) (Homo sapiens (Human), UniProt Q16644); test: Kinase inhibition assay (KinaseProfiler, 33P-ATP); format: biochemical; details: read-out: The percentage of the remaining active protein
Met(Y1248H)(h) = Met(Y1248H)(h) (Homo sapiens (Human), UniProt P08581, Y1248H); test: Kinase inhibition assay (KinaseProfiler, 33P-ATP); format: biochemical; details: read-out: The percentage of the remaining active protein
Chain of Met(Y1248H)(h) (P08581 other isoform, or with tags, fused parts or gaps Y1248H): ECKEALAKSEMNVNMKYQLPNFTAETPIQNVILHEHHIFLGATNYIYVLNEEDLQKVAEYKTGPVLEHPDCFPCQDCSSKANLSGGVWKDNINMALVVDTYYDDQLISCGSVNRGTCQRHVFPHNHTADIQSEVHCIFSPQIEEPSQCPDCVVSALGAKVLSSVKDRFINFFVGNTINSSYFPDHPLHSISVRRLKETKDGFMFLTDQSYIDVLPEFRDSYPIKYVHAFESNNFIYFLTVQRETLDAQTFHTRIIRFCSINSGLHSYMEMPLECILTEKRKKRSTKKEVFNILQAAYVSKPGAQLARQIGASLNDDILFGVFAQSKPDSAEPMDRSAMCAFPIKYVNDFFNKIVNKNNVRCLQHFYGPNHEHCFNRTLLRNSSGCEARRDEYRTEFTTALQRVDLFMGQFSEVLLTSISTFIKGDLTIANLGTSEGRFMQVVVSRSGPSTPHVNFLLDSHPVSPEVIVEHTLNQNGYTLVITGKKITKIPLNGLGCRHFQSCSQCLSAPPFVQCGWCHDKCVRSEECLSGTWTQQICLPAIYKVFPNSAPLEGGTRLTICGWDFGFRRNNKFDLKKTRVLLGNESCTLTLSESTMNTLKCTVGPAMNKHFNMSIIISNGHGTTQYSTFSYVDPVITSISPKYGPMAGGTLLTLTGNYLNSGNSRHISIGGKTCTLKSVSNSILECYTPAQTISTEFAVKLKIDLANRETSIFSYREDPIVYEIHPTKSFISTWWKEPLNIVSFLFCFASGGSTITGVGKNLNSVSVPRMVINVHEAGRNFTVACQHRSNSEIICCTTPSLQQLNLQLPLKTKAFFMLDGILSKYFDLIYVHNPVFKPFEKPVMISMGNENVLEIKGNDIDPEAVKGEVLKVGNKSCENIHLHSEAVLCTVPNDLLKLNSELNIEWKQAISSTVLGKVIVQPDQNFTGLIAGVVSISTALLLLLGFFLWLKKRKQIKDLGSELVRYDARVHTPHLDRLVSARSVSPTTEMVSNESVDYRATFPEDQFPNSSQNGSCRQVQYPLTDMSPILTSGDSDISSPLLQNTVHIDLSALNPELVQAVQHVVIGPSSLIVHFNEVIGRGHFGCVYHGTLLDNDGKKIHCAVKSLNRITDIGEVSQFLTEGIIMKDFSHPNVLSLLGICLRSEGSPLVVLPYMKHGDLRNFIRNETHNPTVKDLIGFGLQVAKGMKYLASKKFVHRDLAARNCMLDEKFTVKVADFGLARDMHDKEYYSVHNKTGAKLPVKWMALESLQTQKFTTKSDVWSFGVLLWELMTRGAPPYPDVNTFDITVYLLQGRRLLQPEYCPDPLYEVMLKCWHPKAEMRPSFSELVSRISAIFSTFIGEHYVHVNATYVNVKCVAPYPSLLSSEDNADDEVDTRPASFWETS

MSSK1(h) = MSSK1(h) (Homo sapiens (Human), UniProt Q9UPE1); test: Kinase inhibition assay (KinaseProfiler, 33P-ATP); format: biochemical; details: read-out: The percentage of the remaining active protein
NEK2(h) = NEK2(h) (Homo sapiens (Human), UniProt P51955); test: Kinase inhibition assay (KinaseProfiler, 33P-ATP); format: biochemical; details: read-out: The percentage of the remaining active protein
NIM1(h) = NIM1(h) (Homo sapiens (Human), UniProt Q8IY84); test: Kinase inhibition assay (KinaseProfiler, 33P-ATP); format: biochemical; details: read-out: The percentage of the remaining active protein
Chain of NIM1(h) (Q8IY84 whole entry): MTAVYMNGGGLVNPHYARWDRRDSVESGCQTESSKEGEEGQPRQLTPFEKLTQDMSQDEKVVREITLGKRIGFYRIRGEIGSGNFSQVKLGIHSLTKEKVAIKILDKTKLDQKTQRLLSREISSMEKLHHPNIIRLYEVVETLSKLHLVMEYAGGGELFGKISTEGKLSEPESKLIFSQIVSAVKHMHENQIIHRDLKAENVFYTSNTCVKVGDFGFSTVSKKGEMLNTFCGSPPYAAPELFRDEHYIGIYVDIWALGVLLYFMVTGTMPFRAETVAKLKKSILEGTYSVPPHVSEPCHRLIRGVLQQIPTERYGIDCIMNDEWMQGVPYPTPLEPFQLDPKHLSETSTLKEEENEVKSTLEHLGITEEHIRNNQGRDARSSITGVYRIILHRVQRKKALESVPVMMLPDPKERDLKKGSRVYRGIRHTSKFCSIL

PAR-1Bα(h) = PAR-1Bα(h) (Homo sapiens (Human), UniProt Q7KZI7); test: Kinase inhibition assay (KinaseProfiler, 33P-ATP); format: biochemical; details: read-out: The percentage of the remaining active protein
PKCι(h) = PKCι(h) (Homo sapiens (Human), UniProt P41743); test: Kinase inhibition assay (KinaseProfiler, 33P-ATP); format: biochemical; details: read-out: The percentage of the remaining active protein
Snk(h) = Snk(h) (Homo sapiens (Human), UniProt Q9NYY3); test: Kinase inhibition assay (KinaseProfiler, 33P-ATP); format: biochemical; details: read-out: The percentage of the remaining active protein
TSSK1(h) = TSSK1(h) (Homo sapiens (Human), UniProt Q9BXA7); test: Kinase inhibition assay (KinaseProfiler, 33P-ATP); format: biochemical; details: read-out: The percentage of the remaining active protein
PIP5K1g(h) = PIP5K1g(h) (Homo sapiens (Human), UniProt O60331); test: Kinase inhibition assay (KinaseProfiler, 33P-ATP); format: biochemical; details: read-out: The percentage of the remaining active protein
Arg = Arg (Homo sapiens, UniProt P42684); test: Kinase inhibition assay (KinaseProfiler, 33P-ATP)
Chain of Arg (P42684 2-1182 limits assumed): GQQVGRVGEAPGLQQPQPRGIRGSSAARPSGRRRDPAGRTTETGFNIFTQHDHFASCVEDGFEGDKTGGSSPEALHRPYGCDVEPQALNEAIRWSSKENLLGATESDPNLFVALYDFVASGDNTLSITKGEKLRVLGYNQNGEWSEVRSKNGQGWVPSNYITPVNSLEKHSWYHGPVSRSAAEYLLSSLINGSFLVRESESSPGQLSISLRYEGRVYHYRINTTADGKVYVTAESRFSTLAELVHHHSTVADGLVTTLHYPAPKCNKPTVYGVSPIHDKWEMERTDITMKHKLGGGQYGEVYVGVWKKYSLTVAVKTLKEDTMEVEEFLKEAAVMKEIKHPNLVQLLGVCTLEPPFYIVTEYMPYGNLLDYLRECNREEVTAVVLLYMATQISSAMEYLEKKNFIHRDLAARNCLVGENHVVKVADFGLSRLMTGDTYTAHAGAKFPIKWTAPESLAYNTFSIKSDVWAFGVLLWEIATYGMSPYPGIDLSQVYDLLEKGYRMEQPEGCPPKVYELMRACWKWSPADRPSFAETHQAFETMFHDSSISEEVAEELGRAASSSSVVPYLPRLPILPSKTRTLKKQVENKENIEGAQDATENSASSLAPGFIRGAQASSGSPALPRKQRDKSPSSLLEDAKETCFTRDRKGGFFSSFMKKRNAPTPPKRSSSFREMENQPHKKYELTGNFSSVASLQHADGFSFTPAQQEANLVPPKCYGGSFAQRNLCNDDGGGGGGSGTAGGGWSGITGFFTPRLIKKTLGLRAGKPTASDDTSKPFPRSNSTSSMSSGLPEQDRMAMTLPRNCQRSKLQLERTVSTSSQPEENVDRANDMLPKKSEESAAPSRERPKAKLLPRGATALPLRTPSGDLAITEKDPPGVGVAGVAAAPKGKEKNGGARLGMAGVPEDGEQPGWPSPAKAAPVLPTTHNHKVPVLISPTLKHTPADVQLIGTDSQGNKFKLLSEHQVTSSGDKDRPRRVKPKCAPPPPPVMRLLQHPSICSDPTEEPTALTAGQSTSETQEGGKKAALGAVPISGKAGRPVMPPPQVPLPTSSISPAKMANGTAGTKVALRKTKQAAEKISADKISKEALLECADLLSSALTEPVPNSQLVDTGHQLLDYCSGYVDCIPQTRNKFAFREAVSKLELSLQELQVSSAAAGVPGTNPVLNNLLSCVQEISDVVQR

CCn1nc(C#Cc2cc(C(=O)Nc3ccc(CN4CCN(C)CC4)c(C(F)(F)F)c3)ccc2C)c2c(N)ncnc21 [Compound 3]
IC50 (MDA-MB-453): 3.37 µM

Cc1ccc(NC(=O)c2cccc(C(F)(F)F)c2)cc1C#Cc1nn(C2CCN(C)CC2)c2ncnc(N)c12 [Compound 31]
IC50 (U87): 5.42 µM | IC50 (Hela): 7.23 µM

Cc1ccc(NC(=O)c2ccc(C)c(C(F)(F)F)c2)cc1C#Cc1nn([C@H]2CC[C@H](O)CC2)c2ncnc(N)c12 [Compound 93]
remaining activity at 10 µM (BRK): -1% | remaining activity at 10 µM (Hck): 0% | remaining activity at 10 µM (Lck; Lck(h), 10 μM, read-out: The percentage of the remaining active protein): 0% | IC50 (Lck; Lck, ATP at Km): 0.014 µM | remaining activity at 10 µM (cKit(h)): 89% | remaining activity at 10 µM (EphA5): -1% | remaining activity at 10 µM (EphA7): 0% | remaining activity at 10 µM (Rse): 2% | IC50 (ZR-75-1): ~10 µM | IC50 (MDA-MB-415): ~10 µM | remaining activity at 10 µM (Abl(Y253F)(h)): 0% | remaining activity at 10 µM (CaMKIδ(h)): 92% | remaining activity at 10 µM (CaMKK2(h)): 55% | remaining activity at 10 µM (CDK5/p25(h)): 87% | remaining activity at 10 µM (CLK3(h)): 83% | remaining activity at 10 µM (DAPK1(h)): 97% | remaining activity at 10 µM (DCAMKL2(h)): 102% | remaining activity at 10 µM (GRK6(h)): 100% | remaining activity at 10 µM (Haspin(h)): 93% | remaining activity at 10 µM (Hck(h) activated): -1% | remaining activity at 10 µM (IKKε(h)): 94% | remaining activity at 10 µM (IR(h)): 97% | remaining activity at 10 µM (IRAK4(h)): 101% | remaining activity at 10 µM (MAPKAP-K3(h)): 96% | remaining activity at 10 µM (Met(Y1248H)(h)): 123% | remaining activity at 10 µM (MSSK1(h)): 56% | remaining activity at 10 µM (NEK2(h)): 117% | remaining activity at 10 µM (NIM1(h)): 131% | remaining activity at 10 µM (PAR-1Bα(h)): 98% | remaining activity at 10 µM (PKCι(h)): 91% | remaining activity at 10 µM (Snk(h)): 109% | remaining activity at 10 µM (TSSK1(h)): 100% | remaining activity at 10 µM (PIP5K1g(h)): 98% | IC50 (Arg; Arg, ATP at Km): 0.004 µM | remaining activity at 10 µM (Arg; read-out: The percentage of the remaining active protein): 0%
